In patent EP4644396A1 (Visionpharma (Nantong) Co., Ltd, priority 2022, dated 2024):
Like-named read-outs stand apart in the source and are kept apart here.

Columns and labels:
human TLR7 = biological target: T1, human TLR7 (Homo sapiens, UniProt Q9NYK1); test: HEK-Blue hTLR7 SEAP reporter gene inhibition assay; format: cell-based
T1 sequence (Q9NYK1 27-1049): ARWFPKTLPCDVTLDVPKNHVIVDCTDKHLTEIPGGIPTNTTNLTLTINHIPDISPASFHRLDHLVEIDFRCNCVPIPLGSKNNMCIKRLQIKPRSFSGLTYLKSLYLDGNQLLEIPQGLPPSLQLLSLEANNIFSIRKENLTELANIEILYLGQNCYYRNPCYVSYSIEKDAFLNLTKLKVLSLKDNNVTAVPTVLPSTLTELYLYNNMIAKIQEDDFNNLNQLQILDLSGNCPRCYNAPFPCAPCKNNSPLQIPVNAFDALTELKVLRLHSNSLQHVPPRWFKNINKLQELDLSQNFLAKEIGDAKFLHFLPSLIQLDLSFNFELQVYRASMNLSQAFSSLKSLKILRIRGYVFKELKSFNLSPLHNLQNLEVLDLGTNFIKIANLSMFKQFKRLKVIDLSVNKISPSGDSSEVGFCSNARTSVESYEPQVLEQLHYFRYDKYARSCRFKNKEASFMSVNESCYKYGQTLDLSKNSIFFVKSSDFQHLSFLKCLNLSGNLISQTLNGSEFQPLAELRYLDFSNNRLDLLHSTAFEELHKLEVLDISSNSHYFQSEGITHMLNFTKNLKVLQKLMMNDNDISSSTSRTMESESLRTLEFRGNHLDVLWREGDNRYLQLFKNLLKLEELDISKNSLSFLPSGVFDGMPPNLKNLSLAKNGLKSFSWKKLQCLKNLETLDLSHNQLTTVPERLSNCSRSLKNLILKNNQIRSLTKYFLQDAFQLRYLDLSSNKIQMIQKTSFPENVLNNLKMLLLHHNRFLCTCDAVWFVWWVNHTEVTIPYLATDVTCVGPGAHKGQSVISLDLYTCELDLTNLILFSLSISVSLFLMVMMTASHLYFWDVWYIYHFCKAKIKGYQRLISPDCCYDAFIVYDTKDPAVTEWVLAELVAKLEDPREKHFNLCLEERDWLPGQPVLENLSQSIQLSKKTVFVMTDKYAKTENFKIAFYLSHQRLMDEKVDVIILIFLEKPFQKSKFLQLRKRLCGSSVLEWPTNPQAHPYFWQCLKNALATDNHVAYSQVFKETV
How it was run: (§1)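 HEK-Blue cells stably expressing hTLR7 (80,000/well) or hTLR8 (60,000/well), SEAP under IFN-β minimal promoter with five NF-κB/AP-1 sites. Compounds (0.001–36 µM final) preincubated 15 min, then 10 µM ligand (Gardiquimod for TLR7) for 20 h. SEAP read with Quanti-Blue; IC50 calculated.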

human TLR8 = biological target: T2, human TLR8 (Homo sapiens, UniProt Q9NR97); test: HEK-Blue hTLR8 SEAP reporter gene inhibition assay; format: cell-based
T2 construct: expressed in transfected cells
T2 sequence (Q9NR97 27-1041): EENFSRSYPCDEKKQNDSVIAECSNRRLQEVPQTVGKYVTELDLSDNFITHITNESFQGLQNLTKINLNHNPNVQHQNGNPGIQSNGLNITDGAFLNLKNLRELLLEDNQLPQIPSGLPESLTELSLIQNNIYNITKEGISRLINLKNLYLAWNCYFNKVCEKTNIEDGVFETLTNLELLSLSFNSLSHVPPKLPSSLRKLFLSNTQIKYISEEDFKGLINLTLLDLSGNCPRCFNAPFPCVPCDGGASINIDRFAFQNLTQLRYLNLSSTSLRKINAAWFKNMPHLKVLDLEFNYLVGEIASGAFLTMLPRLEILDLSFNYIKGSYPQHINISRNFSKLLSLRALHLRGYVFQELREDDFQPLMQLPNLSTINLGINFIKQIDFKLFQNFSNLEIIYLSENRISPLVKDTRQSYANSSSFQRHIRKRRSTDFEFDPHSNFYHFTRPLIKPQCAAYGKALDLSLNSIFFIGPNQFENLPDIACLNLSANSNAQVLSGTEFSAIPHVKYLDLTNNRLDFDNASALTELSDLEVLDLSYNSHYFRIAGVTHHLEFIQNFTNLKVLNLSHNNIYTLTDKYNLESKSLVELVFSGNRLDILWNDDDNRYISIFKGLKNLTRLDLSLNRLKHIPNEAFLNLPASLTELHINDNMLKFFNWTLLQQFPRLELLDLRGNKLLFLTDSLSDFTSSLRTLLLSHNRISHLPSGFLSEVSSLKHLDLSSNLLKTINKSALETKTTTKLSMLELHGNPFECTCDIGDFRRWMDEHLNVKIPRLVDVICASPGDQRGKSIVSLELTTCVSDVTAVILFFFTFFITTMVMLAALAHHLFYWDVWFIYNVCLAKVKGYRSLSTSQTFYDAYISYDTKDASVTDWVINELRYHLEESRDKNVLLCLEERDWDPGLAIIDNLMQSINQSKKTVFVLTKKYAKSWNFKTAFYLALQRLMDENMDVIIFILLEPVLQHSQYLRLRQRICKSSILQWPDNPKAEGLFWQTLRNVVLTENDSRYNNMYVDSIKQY
How it was run: as §1

[1] = hTLR7 HEK-Blue cells, TLR7 ligand Gardiquimod 10 µM, 20 hours, SEAP by Quanti-blue, class symbols, read-out: HEK-Blue hTLR7 IC50
[2] = hTLR8 HEK-Blue cells, TLR8 ligand 10 µM, 20 hours, SEAP by Quanti-blue, class symbols, read-out: HEK-Blue hTLR8 IC50

Row | Structure (SMILES) | IC50 (human TLR7; [1]) | IC50 (human TLR8; [2]) | other results
1 | C[C@@H]1CN(c2ccc(C#N)n3ncc(F)c23)Cc2c3c(nn21)CN(CCC#N)[C@@H](C)C3 [Example I-129, 4-((4R,9S)-8-(2-cyanoethyl)-4,9-dimethyl-3,4,7,8,9,10-hexahydropyridine[3',4':3,4]pyrazole[1,5-a]pyrazine-2 (1 H)-yl)-3-fluoropyrazole [1,5-a] pyridine-7-nitrile] | – | – | IC50 (human TLR7; HEK-Blue hTLR7 IC50 (µM)): < 0.05 µM; IC50 (human TLR8; HEK-Blue hTLR8 IC50 (µM)): < 0.1 µM
2 | C[C@@H]1CN(c2ccc(C#N)c3ncccc23)Cc2c3c(nn21)CN[C@@H](C)C3 [Example I-132, 5-((4R,9S)-4,9-dimethyl-3,4,7,8,9,10-hexahydropyrido[3',4':3,4]pyrazolo[1,5-a]pyrazin-2(1H)-yl)quinoline-8-carbonitrile] | < 0.05 µM | < 0.1 µM | –
3 | C[C@@H]1CN(c2ccc(C#N)n3ncc(F)c23)Cc2c3c(nn21)CN(Cc1ccn[nH]1)[C@@H](C)C3 [Example I-134, 4-((4R,9S)-8-((1H-pyrazol-5-yl)methyl)-4,9-dimethyl-3,4,7,8,9,10-hexahydropyrido[3',4':3,4]pyrazolo[1,5-a]pyrazin-2(1H)-yl)-3-fluoropyrazolo[1,5-a]pyridine-7-carbonitrile] | – | – | IC50 (human TLR7; read-out: HEK-Blue hTLR7 IC50): < 0.05 µM; IC50 (human TLR8; read-out: HEK-Blue hTLR8 IC50): < 0.1 µM
4 | C[C@@H]1CN(c2ccc(C#N)n3ncc(F)c23)Cc2c3c(nn21)CN(C1CC2(COC2)C1)[C@@H](C)C3 [Example I-135] | – | – | IC50 (human TLR7; HEK-Blue hTLR7 IC50 (µM)): < 0.05 µM; IC50 (human TLR8; HEK-Blue hTLR8 IC50 (µM)): < 0.1 µM
5 | C[C@@H]1CN(c2ccc(C#N)n3ncc(F)c23)Cc2c3c(nn21)CN(Cc1cn[nH]c1)[C@@H](C)C3 [Example I-137, 4-((4R,9S)-8-((1H-pyrazol-4-yl)methyl)-4,9-dimethyl-3,4,7,8,9,10-hexahydropyrido [3',4':3,4]pyrazolo[1,5-a]pyrazin-2(1H)-yl)-3-fluoropyrazolo[1,5-a]pyridine-7-carbonitrile] | < 0.05 µM | < 0.1 µM | –
6 | C[C@@H]1CN(c2ccc(C#N)n3ncc(F)c23)Cc2c3c(nn21)CN(CC(=O)N1CCC1)[C@@H](C)C3 [Example I-138, 4-((4R,9S)-8-(2-(azetidin-1-yl)-2-oxoethyl)-4,9-dimethyl-3,4,7,8,9,10-hexahydropyrido [3',4':3,4]pyrazolo[1,5-a]pyrazin-2(1H)-yl)-3-fluoropyrazolo[1,5-a]pyridine-7-carbonitrile] | – | – | IC50 (human TLR7; read-out: HEK-Blue hTLR7 IC50): < 0.05 µM; IC50 (human TLR8; read-out: HEK-Blue hTLR8 IC50): > 0.1 µM
7 | C[C@@H]1CN(c2ccc(C#N)c3ncccc23)Cc2c3c(nn21)CN(CC(N)=O)[C@@H](C)C3 [Example I-141, 2-((4R,9S)-2-(8-cyanoquinolin-5-yl)-4,9-dimethyl-1,2,3,4,9,10-hexahydropyrido [3',4':3,4]pyrazolo[1,5-a]pyrazin-8(7H)-yl)acetamide] | > 0.05 µM | > 0.1 µM | –
8 | C[C@@H]1CN(c2ccc(C#N)n3ncc(F)c23)Cc2c3c(nn21)CN(C1CCOC1)[C@@H](C)C3 (stereo partly drawn) [Example I-142, 4-((4R,9S)-4,9-dimethyl-8-(tetrahydrofuran-3-yl)-3,4,7,8,9,10-hexahydropyrido [3',4':3,4]pyrazolo[1,5-a]pyrazin-2(1H)-yl)-3-fluoropyrazolo[1,5-a]pyridine-7-carbonitrile] | < 0.05 µM | > 0.1 µM | –

Continued, in another order:

Row | IC50 (human TLR7; [1]) | IC50 (human TLR8; [2]) | Structure (SMILES) | other results
9 | < 0.05 µM | < 0.1 µM | C[C@@H]1CN(c2ccc(C#N)n3ncc(F)c23)Cc2c3c(nn21)CN(CC(=O)N1CCN(C2CC2)CC1)[C@@H](C)C3 [Example I-136, 4-((4R,9S)-8-(2-(4-cyclopropylpiperazin-1-yl)-2-oxoethyl)-4,9-dimethyl-3,4,7,8,9,10-hexahydropyrido[3',4':3,4]pyrazolo[1,5-a]pyrazin-2(1H)-yl)-3-fluoropyrazolo[1,5-a]pyridine-7-carbonitrile] | –
10 | < 0.05 µM | > 0.1 µM | C[C@@H]1CN(c2ccc(C#N)n3ncc(F)c23)Cc2c3c(nn21)CN(CC(=O)N1CCOCC1)[C@@H](C)C3 [Example I-139, 4-((4R,9S)-4,9-dimethyl-8-(2-morpholino-2-oxoethyl)-3,4,7,8,9,10-hexahydropyrido [3',4':3,4]pyrazolo[1,5-a]pyrazin-2(1H)-yl)-3-fluoropyrazolo[1,5-a]pyridine-7-carbonitrile] | –
11 | < 0.05 µM | > 0.1 µM | C[C@@H]1CN(c2ccc(C#N)n3ncc(F)c23)Cc2c3c(nn21)CN(CC(=O)N1CC(F)(F)C1)[C@@H](C)C3 [Example I-140, 4-((4R,9S)-8-(2-(3,3-difluoroazetidin-1-yl)-2-oxoethyl)-4,9-dimethyl-3,4,7,8,9,10-hexahydropyrido[3',4':3,4]pyrazolo[1,5-a]pyrazin-2(1H)-yl)-3-fluoropyrazolo[1,5-a]pyridine-7-carbonitrile] | –
12 | < 0.05 µM | > 0.1 µM | C[C@@H]1CN(c2ccc(C#N)n3ncc(F)c23)Cc2c3c(nn21)CN(CC(=O)N1C[C@H](C)N[C@@H](C)C1)[C@@H](C)C3 [Example I-144, 4-((4R,9S)-8-(2-((3S,5S)-3,5-dimethylpiperazin-1-yl)-2-oxoethyl)-4,9-dimethyl-3,4,7,8,9,10-hexahydropyrido[3',4':3,4]pyrazolo[1,5-a]pyrazin-2(1H)-yl)-3-fluoropyrazolo[1,5-a]pyridine-7-carbonitrile] | –
13 | < 0.05 µM | > 0.1 µM | C[C@@H]1CN(C(=O)CN2Cc3nn4c(c3C[C@@H]2C)CN(c2ccc(C#N)n3ncc(F)c23)C[C@H]4C)C[C@@H](C)N1 [Example I-146, 4-((4R,9S)-8-(2-((3R,5R)-3,5-dimethylpiperazin-1-yl)-2-oxoethyl)-4,9-dimethyl-3,4,7,8,9,10-hexahydropyrido[3',4':3,4]pyrazolo[1,5-a]pyrazin-2(1H)-yl)-3-fluoropyrazolo[1,5-a]pyridine-7-carbonitrile] | –
14 | < 0.05 µM | > 0.1 µM | C[C@@H]1CN(c2ccc(C#N)n3ncc(F)c23)Cc2c3c(nn21)CN(CC(=O)N1CCCC1)[C@@H](C)C3 [Example I-151, 4-((4R,9S)-4,9-dimethyl-8-(2-oxo-2-(pyrrolidin-1-yl)ethyl)-3,4,7,8,9,10-hexahydropyrido[3',4':3,4]pyrazolo[1,5-a]pyrazin-2(1H)-yl)-3-fluoropyrazolo[1,5-a]pyridine-7-carbonitrile] | –
15 | < 0.05 µM | > 0.1 µM | C[C@@H]1CN(c2ccc(C#N)n3ncc(F)c23)Cc2c3c(nn21)CN(CC(=O)N1CCC(F)(F)C1)[C@@H](C)C3 [Example I-152, 4-((4R,9S)-8-(2-(3,3-difluoropyrrolidin-1-yl)-2-oxoethyl)-4,9-dimethyl-3,4,7,8,9,10-hexahydropyrido[3',4':3,4]pyrazolo[1,5-a]pyrazin-2(1H)-yl)-3-fluoropyrazolo[1,5-a]pyridine-7-carbonitrile] | –
